Data as given in patent EP4342905B1, “1,N6-ETHENOADENOSINE DERIVATIVES FOR CANCER TREATMENT” (PHILIPPS-UNIVERSITÄT MARBURG, priority 2022, dated 2024).
Counter-ions that a name gives are not always drawn.

Legend:
Panc-1 cells = assay: CellTiter-Glo Luminescent Cell Viability Assay, Panc-1 as PDAC model; format: cell-based, human; conditions: for IC50: Panc-1 cells, 72 h compound incubation, mean ± SD of at least three independent biological repeats; for activity against human Panc-1 pancreatic carcinoma cells compared to gemcitabine: comparison with gemcitabine
Protocol: The biological antitumor-activity of adenosine derivatives according to Formula I towards pancreatic ductal adenocarcinoma (PDAC) was evaluated by utilizing the established cell line Panc-1 as a PDAC model by applying the CellTiter-Glo® Luminescent Cell Viability Assay (Promega) after 72 h of compound incubation. Gemcitabine (100 µM) was used as a positive control. To analyze the cytotoxic efficacy in Panc-1 cells, dose-response curves were generated for each compound, starting from a concentration of 100 µM with serial dilution of 1:3. IC50 values are shown as arithmetic means of at least three independent biological repeats in following Table 1. Table 1: IC50-Values for the inhibition of PADC by adenosine and 1,N6-ethenoadenosine derivatives (with the respective standard deviations SD)

[1] = logPOW determination, water/1-octanol distribution with UV/VIS readout; format: physicochemical; conditions: 1 h stirring, room temperature (23 °C), ratio of maximal UV absorbances; for logP at 1 h: read-out: logPOW (measured)
Protocol: All logPOW values reported herein are determined as follows: 2 mg of the compound to be measured are distributed in a 250 ml beaker between a two-phase mixture of water (50 ml) and 1-octanol (50 ml) and stirred for 1 h on a magnetic stirrer at room temperature (23 °C). After separation of the layers, 3 ml of each phase are removed and transferred into a 3.5 ml quartz cuvette (10 x 10 mm, 3500 µl; Hellma, Darmstadt, Germany) and measured on a UV/VIS spectrometer (Cary 50, Varian, Darmstadt, Germany). From the ratio of maximal absorbances in both layers (λmax) the corresponding log10POW values are determined.

| SMILES | IC50 (Panc-1 cells; Homo sapiens) [µM] | activity against human Panc-1 pancreatic carcinoma cells compared to gemcitabine (Panc-1 cells) | logPOW (measured) [1] | logP at 1 h [1] | IC50 (Panc-1 cells) [µM] |
| --- | --- | --- | --- | --- | --- |
| CCCCCCCC1(CCCCCCC)O[C@@H]2[C@H](O1)[C@@H](CO)O[C@H]2n1cnc2c(N)ncnc21 [Compound 2a, ((3aR,4R,6R,6aR)-6-(6-amino-9H-purin-9-yl)-2,2-diheptyltetrahydrofuro[3,4-d][1,3]dioxol-4-yl)methanol] | 14.58 ± 0.14 | more active | 2.82 | 2.82 | – |
| CCCCCCCCC1(CCCCCCCC)O[C@@H]2[C@H](O1)[C@@H](CO)O[C@H]2n1cnc2c(N)ncnc21 [Compound 2b, ((3aR,4R,6R,6aR)-6-(6-amino-9H-purin-9-yl)-2,2-dioctyltetrahydrofuro[3,4-d][1,3]dioxol-4-yl)methanol] | – | – | 3.86 | 3.86 | – |
| CCCCCCCCCCCCCC1(C)O[C@@H]2[C@H](O1)[C@@H](CO)O[C@H]2n1cnc2c(N)ncnc21 (stereo partly drawn) [Compound 2c, ((2R/2S,3aR,4R,6R,6aR)-6-(6-amino-9H-purin-9-yl)-2-methyl-2-tridecyltetrahydrofuro[3,4-d][1,3]dioxol-4-yl)methanol] | – | – | 2.83 | – | – |
| CCCCCCCCCCCCCC1(CC)O[C@@H]2[C@H](O1)[C@@H](CO)O[C@H]2n1cnc2c(N)ncnc21 (stereo partly drawn) [Compound 2d, ((2R/2S,3aR,4R,6R,6aR)-6-(6-amino-9H-purin-9-yl)-2-ethyl-2-tridecyltetrahydrofuro[3,4-d][1,3]dioxol-4-yl)methanol] | – | more active | 3.60 | – | 14.6 ± 0.69 |
| CCCCCCCC1(CCCCCCC)O[C@@H]2[C@H](O1)[C@@H](CO)O[C@H]2n1cnc2c1ncn1ccnc21.Cl [Compound 4a, ((3aR,4R,6R,6aR)-6-(3H-imidazo[2,1-i]purin-3-yl)-2,2-diheptyltetrahydrofuro[3,4-d][1,3]dioxol-4-yl)methanol Hydrochloride] | 17.1 ± 3.14 | – | 2.40 | 2.4 | – |
| CCCCCCCCC1(CCCCCCCC)O[C@@H]2[C@H](O1)[C@@H](CO)O[C@H]2n1cnc2c1ncn1ccnc21 [Compound 4b, ((3aR,4R,6R,6aR)-6-(3H-imidazo[2,1-i]purin-3-yl)-2,2-dioctyitetrahydrofuro[3,4-d][1,3]dioxol-4-yl)methanol Hydrochloride] | 16.2 ± 1.35 | more active | 2.57 | 2.57 | – |
| CCCCCCCCCCCCCC1(C)O[C@@H]2[C@H](O1)[C@@H](CO)O[C@H]2n1cnc2c(N)ncnc21.Cl (stereo partly drawn) [Compound 4c, ((2R/2S,3aR,4R,6R,6aR)-6-(6-amino-9H-purin-9-yl)-2-methyl-2-tridecyltetrahydrofuro[3,4-d][1,3]dioxol-4-yl)methanol Hydrochloride] | – | more active | 2.75 | – | 30.6 ± 2.53 |
| CCCCCCCCCCCCCC1(CC)O[C@@H]2[C@H](O1)[C@@H](CO)O[C@H]2n1cnc2c1ncn1ccnc21.Cl (stereo partly drawn) [Compound 4d, ((2R/2S,3aR,4R,6R,6aR)-6-(3H-imidazo[2,1-i]purin-3-yl)-2-ethyl-2-tridecyltetrahydrofuro[3,4-d][1,3]dioxol-4-yl)methanol Hydrochloride] | – | – | 2.29 | – | 16 ± 4.31 |
| Cl.OC[C@H]1O[C@@H](n2cnc3c2ncn2ccnc32)[C@@H]2OC3(CCCCCCCCCCCCCC3)O[C@@H]21 [Compound 5, ((3a'R,4'R,6'R,6a'R)-4'-(3H-imidazo[2,1-i]purin-3-yl)tetrahydrospiro[cyclopentadecane-1,2'-furo[3,4-d][1,3]dioxol]-6'-yl)methanol Hydrochloride] | 23.1 ± 3.6 | – | 1.67 | 1.67 | – |
